Measurements from PubChem BioAssay AID2060486 (Molecular Pharmacology Branch, DTP, NCI, 2025).

Test system: IGROV1 complex spheroids (HUVEC, MSC), viability % test/control
Test: Anticancer human tumor IGROV1 cell line growth inhibition [GQUAD];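 note: spheroids exposed to compounds for 7 days before readout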;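 for viability, T/C: 100% = DMSO vehicle control viability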
Conditions: for IC50: curve of first compound; for viability, T/C: stronger effect = lower value
Summary of the method: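 Multi-cell-type spheroids of tumor cells with HUVEC and mesenchymal stem cells, treated with drug combinations. Concentrations descend in half-log steps from near clinical Cmax, or from 10 microM where Cmax is unknown; viability read-out.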

[1] = second compound 0.0316 µM, first compound 0.0316 µM
[2] = second compound 0.0316 µM, first compound 0.1 µM
[3] = second compound 0.0316 µM, first compound 0.316 µM
[4] = second compound 0.0316 µM, first compound 1 µM
[5] = second compound 0.0316 µM, first compound 3.16 µM
[6] = second compound 0.0316 µM, first compound 10 µM
[7] = second compound 0.1 µM, first compound 0.0316 µM
[8] = second compound 0.1 µM, first compound 0.1 µM
[9] = second compound 0.1 µM, first compound 0.316 µM
[10] = second compound 0.1 µM, first compound 1 µM
[11] = second compound 0.1 µM, first compound 3.16 µM
[12] = second compound 0.1 µM, first compound 10 µM
[13] = second compound 0.316 µM, first compound 0.0316 µM
[14] = second compound 0.316 µM, first compound 0.1 µM
[15] = second compound 0.316 µM, first compound 0.316 µM
[16] = second compound 0.316 µM, first compound 1 µM
[17] = second compound 0.316 µM, first compound 3.16 µM
[18] = second compound 0.316 µM, first compound 10 µM
[19] = second compound 1 µM, first compound 0.0316 µM
[20] = second compound 1 µM, first compound 0.1 µM
[21] = second compound 1 µM, first compound 0.316 µM
[22] = second compound 1 µM, first compound 1 µM
[23] = second compound 1 µM, first compound 3.16 µM
[24] = second compound 1 µM, first compound 10 µM
[25] = second compound 3.16 µM, first compound 0.0316 µM
[26] = second compound 3.16 µM, first compound 0.1 µM
[27] = second compound 3.16 µM, first compound 0.316 µM
[28] = second compound 3.16 µM, first compound 1 µM
[29] = second compound 3.16 µM, first compound 3.16 µM
[30] = second compound 3.16 µM, first compound 10 µM
[31] = second compound 10 µM, first compound 0.0316 µM
[32] = second compound 10 µM, first compound 0.1 µM
[33] = second compound 10 µM, first compound 0.316 µM
[34] = second compound 10 µM, first compound 1 µM
[35] = second compound 10 µM, first compound 3.16 µM
[36] = second compound 10 µM, first compound 10 µM

Molecule CCCS(=O)(=O)Nc1ccc(F)c(C(=O)c2c[nH]c3ncc(-c4ccc(Cl)cc4)cc23)c1F + Cc1cnc(CNC(=O)c2c(=O)c3ccc(N4CCCN(C)CC4)nc3n3c2sc2ccccc23)cn1 has an IC50 (second compound 0.0316 µM) of 1470 nM, an IC50 (second compound 0.1 µM) of less than 31.6 nM and an IC50 (second compound 0.316 µM) of less than 31.6 nM. For the same molecule, the IC50 (second compound 1 µM) was less than 31.6 nM, the IC50 (second compound 3.16 µM) was less than 31.6 nM and the IC50 (second compound 10 µM) was less than 31.6 nM. For the same molecule, the viability, T/C [1] was 77.1%, the viability, T/C [2] was 71.3% and the viability, T/C [3] was 50.1%. The viability, T/C [4] was 52.3%, the viability, T/C [5] was 51.9% and the viability, T/C [6] was 14.2%. For the same molecule, the viability, T/C [7] was 44.5%, the viability, T/C [8] was 42.7% and the viability, T/C [9] was 41.1%. For the same molecule, the viability, T/C [10] was 31.6%, the viability, T/C [11] was 37.9% and the viability, T/C [12] was 9.64%. The viability, T/C [13] was 21%, the viability, T/C [14] was 33.1% and the viability, T/C [15] was 25.4%. The viability, T/C [16] was 24.6%, the viability, T/C [17] was 14.4% and the viability, T/C [18] was 7.38%. It also gave a viability, T/C [19] of 15.1%, a viability, T/C [20] of 17.2% and a viability, T/C [21] of 11.9%. The viability, T/C [22] was 15.9%, the viability, T/C [23] was 14.6% and the viability, T/C [24] was 5.36%. It also gave a viability, T/C [25] of 9.19%, a viability, T/C [26] of 7.43% and a viability, T/C [27] of 10.5%. It also gave a viability, T/C [28] of 10.6%, a viability, T/C [29] of 9.32% and a viability, T/C [30] of 4.31%. For the same molecule, the viability, T/C [31] was 10.1%, the viability, T/C [32] was 9.63% and the viability, T/C [33] was 8.82%. For the same molecule, the viability, T/C [34] was 8.04%, the viability, T/C [35] was 6.37% and the viability, T/C [36] was 5.19%.
For Cc1[nH]c2ccccc2c1CCNCc1ccc(/C=C/C(=O)NO)cc1 + Cc1cnc(CNC(=O)c2c(=O)c3ccc(N4CCCN(C)CC4)nc3n3c2sc2ccccc23)cn1, the IC50 (second compound 0.0316 µM) was 6.26 nM, the IC50 (second compound 0.1 µM) was less than 0.999 nM and the IC50 (second compound 0.316 µM) was less than 0.999 nM. For the same molecule, the IC50 (second compound 1 µM) was less than 0.999 nM, the IC50 (second compound 3.16 µM) was less than 0.999 nM and the IC50 (second compound 10 µM) was less than 0.999 nM. For the same molecule, the viability, T/C (second compound 0.0316 µM, first compound 0.000999 µM) was 65.9%, the viability, T/C (second compound 0.0316 µM, first compound 0.00316 µM) was 65.3% and the viability, T/C (second compound 0.0316 µM, first compound 0.00999 µM) was 38.7%. It also gave a viability, T/C [1] of 21.5%, a viability, T/C (second compound 0.0316 µM, first compound 0.0999 µM) of 2.35% and a viability, T/C [3] of 0.32%. The viability, T/C (second compound 0.1 µM, first compound 0.000999 µM) was 41.6%, the viability, T/C (second compound 0.1 µM, first compound 0.00316 µM) was 36.1% and the viability, T/C (second compound 0.1 µM, first compound 0.00999 µM) was 23.9%. The viability, T/C [7] was 19.6%, the viability, T/C (second compound 0.1 µM, first compound 0.0999 µM) was 2.91% and the viability, T/C [9] was 0.3%. For the same molecule, the viability, T/C (second compound 0.316 µM, first compound 0.000999 µM) was 22.5%, the viability, T/C (second compound 0.316 µM, first compound 0.00316 µM) was 25.8% and the viability, T/C (second compound 0.316 µM, first compound 0.00999 µM) was 15.5%. The viability, T/C [13] was 15%, the viability, T/C (second compound 0.316 µM, first compound 0.0999 µM) was 3.3% and the viability, T/C [15] was 0.05%. For the same molecule, the viability, T/C (second compound 1 µM, first compound 0.000999 µM) was 15.4%, the viability, T/C (second compound 1 µM, first compound 0.00316 µM) was 16.3% and the viability, T/C (second compound 1 µM, first compound 0.00999 µM) was 9.69%. The viability, T/C [19] was 6.52%, the viability, T/C (second compound 1 µM, first compound 0.0999 µM) was 1.86% and the viability, T/C [21] was 0.04%. For the same molecule, the viability, T/C (second compound 3.16 µM, first compound 0.000999 µM) was 8.66%, the viability, T/C (second compound 3.16 µM, first compound 0.00316 µM) was 10.2% and the viability, T/C (second compound 3.16 µM, first compound 0.00999 µM) was 9.38%. The viability, T/C [25] was 6%, the viability, T/C (second compound 3.16 µM, first compound 0.0999 µM) was 0.07% and the viability, T/C [27] was 0.07%. For the same molecule, the viability, T/C (second compound 10 µM, first compound 0.000999 µM) was 6.85%, the viability, T/C (second compound 10 µM, first compound 0.00316 µM) was 7.04% and the viability, T/C (second compound 10 µM, first compound 0.00999 µM) was 5.72%. For the same molecule, the viability, T/C [31] was 4.82%, the viability, T/C (second compound 10 µM, first compound 0.0999 µM) was 0.14% and the viability, T/C [33] was 0.13%.
With O=C(NO)c1cnc(N2CCN(S(=O)(=O)c3ccc4ccccc4c3)CC2)nc1 + Cc1cnc(CNC(=O)c2c(=O)c3ccc(N4CCCN(C)CC4)nc3n3c2sc2ccccc23)cn1 the IC50 (second compound 0.0316 µM) was less than 31.6 nM, the IC50 (second compound 0.1 µM) was less than 31.6 nM and the IC50 (second compound 0.316 µM) was less than 31.6 nM. The IC50 (second compound 1 µM) was less than 31.6 nM, the IC50 (second compound 3.16 µM) was less than 31.6 nM and the IC50 (second compound 10 µM) was less than 31.6 nM. It also gave a viability, T/C [1] of 49.6%, a viability, T/C [2] of 21.8% and a viability, T/C [3] of 4.13%. The viability, T/C [4] was 0.2%, the viability, T/C [5] was 0.06% and the viability, T/C [6] was 0.06%. It also gave a viability, T/C [7] of 16.4%, a viability, T/C [8] of 10.6% and a viability, T/C [9] of 2.94%. For the same molecule, the viability, T/C [10] was 0.19%, the viability, T/C [11] was 0.06% and the viability, T/C [12] was 0.05%. For the same molecule, the viability, T/C [13] was 11%, the viability, T/C [14] was 9.94% and the viability, T/C [15] was 2.34%. The viability, T/C [16] was 0.05%, the viability, T/C [17] was 0.03% and the viability, T/C [18] was 0.05%. The viability, T/C [19] was 8.18%, the viability, T/C [20] was 8.18% and the viability, T/C [21] was 1.32%. It also gave a viability, T/C [22] of 0.04%, a viability, T/C [23] of 0.03% and a viability, T/C [24] of 0.05%. For the same molecule, the viability, T/C [25] was 5.96%, the viability, T/C [26] was 4.03% and the viability, T/C [27] was 0.06%. It also gave a viability, T/C [28] of 0.04%, a viability, T/C [29] of 0.05% and a viability, T/C [30] of 0.06%. It also gave a viability, T/C [31] of 6.31%, a viability, T/C [32] of 6.49% and a viability, T/C [33] of 0.09%. For the same molecule, the viability, T/C [34] was 0.07%, the viability, T/C [35] was 0.1% and the viability, T/C [36] was 0.1%.
